How the values were obtained:
[1] = Total antioxidant capacity of cerebrospinal fluid after oral administration; assay type: in vivo; details: rat, 100 mg oral, after 15 min
Protocol: Several rats were given 100 mg hydroxytyrosol by oral administration. After 15 min a small amount of cerebrospinal fluid was taken from the rat and analysed for the presence of hydroxytyrosol. Also the total antioxidant capacity in this fluid was measured and compared with a control. The detection of hydroxytyrosol was accomplished by gas chromatography and concentrations were determined by a standard curve. Hydroxytyrosol reached a concentration between 0.1 and 0.2 mM in cerebrospinal fluid after 15 minutes of oral administration. Moreover, the total antioxidant capacity of cerebrospinal fluid increased by 35% under these conditions as compared to a control.

[2] = test system: primary hippocampal cultures from rat; assay: Neuroprotection: rescue of neuronal cells from neurotoxin-induced apoptosis; assay type: cell-based; details: 50 μM
Protocol: The capacity of two phenolic compounds to rescue neuronal cells from different kind of stressors was tested. To primary hippocampal cultures from rat, different neurotoxins (glutamate, hydrogen peroxide or beta-amyloid peptide) were added in such concentrations that in half of the cells apoptosis was induced. Then, together with the toxins, hydroxytyrosol or tyrosol were added in a final concentration of 50 μM, and the cells were incubated for 24 h. at 37° C. Subsequently, apoptosis was measured in the cell cultures and the number of cells that were protected by this treatment as compared to a control was calculated. […] Hydroxytyrosol protected around 60% of the cells against hydrogen peroxide, 35% against glutamate-induced neurotoxicity, and 45% against beta-amyloid induced apoptosis.

[3] = test system: Beta-amyloid peptide (1-40); assay: Prevention of metal-induced beta-amyloid precipitation (turbidometric assay); details: 25 μM compound, 10 μM beta-amyloid (1-40)
Protocol: Therefore, an experiment was performed to study its capacity to solubilize beta-amyloid peptide from insoluble aggregates. Beta-amyloid peptide (1-40) was brought to 10 μM in 150 mM NaCl, 50 mM HEPES (pH 7.4), and mixed with 10 μM CuCl2 or 10 μM FeCl3. Precipitation of beta-amyloid peptide by copper and iron was measured by a turbidometric assay (Huang et al. J. Biol. Chem. 1997, 272(42), 26464-70). Copper- and iron-induced turbidity was almost completely abolished (>90%) by the presence of 25 μM hydroxytyrosol.

[4] = target: T1, monoamine oxidase B (MAO-B) (Rattus norvegicus, UniProt P19643); assay: Monoamine oxidase inhibition, purified mitochondria from rat brain tissue; assay type: biochemical; details: benzylamine (300 μM) as substrate
T1 construct: MAO-B enzyme activities were measured using purified mitochondria from rat brain tissue; from tissue; host or cells: purified mitochondria from rat brain tissue
T1 sequence (P19643 1-520): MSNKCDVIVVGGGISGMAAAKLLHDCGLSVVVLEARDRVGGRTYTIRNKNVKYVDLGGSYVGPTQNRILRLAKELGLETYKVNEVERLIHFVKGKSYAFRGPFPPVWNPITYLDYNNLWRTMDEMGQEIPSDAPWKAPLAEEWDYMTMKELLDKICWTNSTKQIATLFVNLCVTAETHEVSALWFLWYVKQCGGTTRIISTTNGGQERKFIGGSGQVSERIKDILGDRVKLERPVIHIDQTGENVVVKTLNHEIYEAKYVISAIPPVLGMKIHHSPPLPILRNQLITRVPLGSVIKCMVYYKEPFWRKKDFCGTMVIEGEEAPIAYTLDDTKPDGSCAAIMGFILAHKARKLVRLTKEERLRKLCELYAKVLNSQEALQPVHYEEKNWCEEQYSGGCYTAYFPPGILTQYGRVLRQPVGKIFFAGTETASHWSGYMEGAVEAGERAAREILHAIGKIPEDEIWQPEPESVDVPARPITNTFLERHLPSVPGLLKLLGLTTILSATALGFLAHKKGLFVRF
Protocol: We determined the IC50 of hydroxytyrosol for monoamine oxidase B (MAO-B). Therefore, MAO-B enzyme activities were measured using purified mitochondria from rat brain tissue as described previously (Holt et al. Anal. Biochem. 1997, 244, 384-392). Benzylamine (300 μM) was used as a substrate for MAO-B and the IC50 was calculated by adding different amounts of hydroxytyrosol to the enzyme assay.

[5] = Compound in cerebrospinal fluid of rats after oral administration (gas chromatography); assay type: in vivo, rat; details: rats which had received tyrosol orally
[6] = 24 h at 37° C., toxin inducing apoptosis in half of the cells

Compound | Increase of total antioxidant capacity of cerebrospinal fluid as compared to a control [1] | Cells protected against beta-amyloid induced apoptosis [2, 6] | Cells protected against glutamate-induced neurotoxicity [2, 6] | Cells protected against hydrogen peroxide [2, 6] | Copper-induced turbidity abolished ([3]; 10 μM CuCl2, pH 7.4) | Iron-induced turbidity abolished ([3]; 10 μM FeCl3, pH 7.4) | IC50 [4] | Binding of iron, zinc and copper ions (in words) (Binding of metal ions) | Tyrosol in cerebrospinal fluid (in words) [5] | Protection of cells from dying (in words) ([2]; 24 h, glutamate, hydrogen peroxide or beta-amyloid peptide)
OCCc1ccc(O)c(O)c1 [Hydroxytyrosol, 2-(3,4-dihydroxyphenyl) ethanol] | 35% | ~45% | ~35% | around 60% | > 90% | > 90% | 16.3 ± 1.3 µM | high affinity |  | 
OCCc1ccc(O)cc1 [Tyrosol, 2-(4-hydroxyphenyl) ethanol] |  |  |  |  |  |  |  |  | detected | protected part of the cells from dying

Reference: patent US20030236202A1, “Natural products and derivatives thereof for protection against neurodegenerative diseases” (priority 2002, published 2003)
